From ChEMBL document CHEMBL1201862, “PubChem BioAssay data set” (2004)
The source made the active and inactive calls.

Columns and labels:
CAAX prenyl protease 2 = CAAX prenyl protease 2 (Saccharomyces cerevisiae S288c, UniProt Q03530); format: biochemical
[1] = inhibitors of intracellular T. cruzi replication, confirmation, NIH3T3 host cells, beta-gal luminescence (AID 2044); format: functional, cell-based;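 note: intracellular parasites grown in NIH/3T3 mouse fibroblasts as host cells; luminescent beta-galactosidase reporter signal from transgenic T. cruzi replicating inside host cells; inhibitors lower the luminescence signal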
[2] = molecular target: T1, Ubiquitin-conjugating enzyme E2 N (Homo sapiens, UniProt P61088); format: functional;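 note: Dose-response confirmation in a TR-FRET assay detecting UBC13-driven polyubiquitin chain formation, inhibition measured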
T1 sequence (P61088 whole entry): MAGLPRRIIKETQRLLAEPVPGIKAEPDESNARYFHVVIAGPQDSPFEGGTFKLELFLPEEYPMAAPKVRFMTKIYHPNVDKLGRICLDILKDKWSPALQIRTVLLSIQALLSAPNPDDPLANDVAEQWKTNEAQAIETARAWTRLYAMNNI

[3] = Luminescence Cell-Based Dose Retest to Confirm Inhibitors of Cancer Stem Cells. [Related pubchem assays (depositor defined):AID2717, AID2721]; format: functional; settings: Homo sapiens
[4] = NIH-3T3 fibroblast cytotoxicity, dose response, cytotoxicity control, cell-based, fluorescence, Alamar Blue, secondary assay (AID 2327); format: functional;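 note: NIH-3T3 mouse fibroblasts cultured with fluconazole at 8 µg/mL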
[5] = cytotoxicity toward NIH3T3 fibroblasts, dose response, counter-screen, cell-based, ATP luminescence, mouse fibroblasts (AID 2010); format: functional;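 note: cells exposed to compound for about 90 hours before reading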
[6] = microbe, parasite or virus in culture; format: functional; settings: Mycobacterium tuberculosis
INS1 = test: beta cell apoptosis inhibitors, cytokine rescue, dose response, luminescence, retest (AID 449756); format: functional, cell-based; settings: Rattus norvegicus;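 note: cell death triggered by IL-1 beta plus TNF-alpha plus IFN-gamma mixture; protective hits raise ATP signal compared with cytokine alone wells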
[7] = molecular target: Neurotensin receptor type 1 (Homo sapiens, UniProt P30989); format: functional;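 note: Image-based confirmatory dose-response assay measuring agonist activity at NTR1; NTR1-expressing U2OS osteosarcoma cells imaged for beta-arrestin GFP spot formation; agonist potency where compounds increase beta-arrestin recruitment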
Neurotensin receptor type 1, sequence (P30989 whole entry): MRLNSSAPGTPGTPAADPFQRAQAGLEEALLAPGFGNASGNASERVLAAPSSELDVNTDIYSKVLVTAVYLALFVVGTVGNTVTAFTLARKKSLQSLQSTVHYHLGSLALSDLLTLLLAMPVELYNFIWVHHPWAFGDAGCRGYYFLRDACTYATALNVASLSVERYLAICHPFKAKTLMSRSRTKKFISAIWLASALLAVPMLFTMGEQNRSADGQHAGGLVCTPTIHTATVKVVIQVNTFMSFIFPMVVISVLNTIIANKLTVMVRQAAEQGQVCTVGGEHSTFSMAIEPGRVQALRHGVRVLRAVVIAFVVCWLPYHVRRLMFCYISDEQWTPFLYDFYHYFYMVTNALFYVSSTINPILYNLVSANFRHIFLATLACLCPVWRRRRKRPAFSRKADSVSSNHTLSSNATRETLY

[8] = C. albicans growth with fluconazole, confirmation, fluorescence, retest (AID 2467); format: functional, cell-based
Cannabinoid receptor 1 [9] = molecular target: T2, Cannabinoid receptor 1 (Homo sapiens, UniProt P21554); test: SAR analysis of agonists of the Cannabinoid Receptor 1 using an Image-Based Assay - Set 4. [Related pubchem assays (depositor defined):AID2013, AID2026]; format: functional
T2 sequence (P21554 whole entry): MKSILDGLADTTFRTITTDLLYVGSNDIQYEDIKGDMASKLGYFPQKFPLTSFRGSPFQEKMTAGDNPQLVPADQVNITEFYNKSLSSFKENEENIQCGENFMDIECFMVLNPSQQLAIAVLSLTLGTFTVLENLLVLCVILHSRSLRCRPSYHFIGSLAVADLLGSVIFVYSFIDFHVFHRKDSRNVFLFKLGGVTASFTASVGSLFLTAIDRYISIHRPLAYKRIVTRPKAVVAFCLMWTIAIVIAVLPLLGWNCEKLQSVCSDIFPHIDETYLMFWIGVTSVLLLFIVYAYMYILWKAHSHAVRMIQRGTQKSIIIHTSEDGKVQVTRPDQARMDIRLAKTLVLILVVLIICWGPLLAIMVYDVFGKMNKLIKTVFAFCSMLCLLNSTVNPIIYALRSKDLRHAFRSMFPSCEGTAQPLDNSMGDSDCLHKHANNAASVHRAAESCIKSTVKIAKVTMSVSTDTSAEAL

[10] = molecular target: T3, G-protein coupled receptor 35 (Homo sapiens, UniProt Q9HC97); test: SAR analysis of Agonists of the GPR35 Receptor using an Image-Based Assay - Set 4. [Related pubchem assays (depositor defined):AID2013, AID2026]; format: functional
T3 sequence (Q9HC97 whole entry): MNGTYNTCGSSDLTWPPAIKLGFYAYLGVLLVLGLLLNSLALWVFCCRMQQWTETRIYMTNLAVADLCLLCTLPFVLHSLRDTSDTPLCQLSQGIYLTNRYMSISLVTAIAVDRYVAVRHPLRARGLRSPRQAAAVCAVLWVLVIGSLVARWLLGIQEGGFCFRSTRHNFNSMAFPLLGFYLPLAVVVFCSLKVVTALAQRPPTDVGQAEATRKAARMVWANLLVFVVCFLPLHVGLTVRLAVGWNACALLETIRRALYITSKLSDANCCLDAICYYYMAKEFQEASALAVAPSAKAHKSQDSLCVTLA

[11] = molecular target: T3, G-protein coupled receptor 35; test: SAR analysis of Antagonists of the GPR35 Receptor using an Image-Based Assay - Set 6. [Related pubchem assays (depositor defined):AID2013, AID2026]; format: functional
Cannabinoid receptor 2 [12] = molecular target: T4, Cannabinoid receptor 2 (Homo sapiens, UniProt P34972); test: SAR analysis of antagonists of the Cannabinoid Receptor 2 using an Image-Based Assay - Set 3. [Related pubchem assays (depositor defined):AID2013, AID2026]; format: functional
T4 sequence (P34972 whole entry): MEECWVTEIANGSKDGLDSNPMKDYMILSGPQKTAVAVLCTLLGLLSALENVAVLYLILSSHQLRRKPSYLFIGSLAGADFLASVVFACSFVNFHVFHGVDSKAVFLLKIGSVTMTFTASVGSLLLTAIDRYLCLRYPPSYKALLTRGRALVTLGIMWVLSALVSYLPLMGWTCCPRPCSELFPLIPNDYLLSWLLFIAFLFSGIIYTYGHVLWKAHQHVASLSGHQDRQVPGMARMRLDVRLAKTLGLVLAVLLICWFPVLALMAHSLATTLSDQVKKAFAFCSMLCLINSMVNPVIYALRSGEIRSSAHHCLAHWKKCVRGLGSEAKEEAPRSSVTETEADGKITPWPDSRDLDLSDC

Cannabinoid receptor 1 [13] = molecular target: T2, Cannabinoid receptor 1; test: SAR analysis of antagonists of the Cannabinoid Receptor 1 using an Image-Based Assay - Set 4. [Related pubchem assays (depositor defined):AID2013, AID2026]; format: functional
Cannabinoid receptor 2 [14] = molecular target: T4, Cannabinoid receptor 2; test: SAR analysis of agonists of the Cannabinoid Receptor 2 using an Image-Based Assay - Set 3. [Related pubchem assays (depositor defined):AID2013, AID2026]; format: functional
[15] = molecular target: G-protein coupled receptor 55 (Homo sapiens, UniProt Q9Y2T6); test: SAR Analysis of Selective Antagonists of GPR55 using an Image-Based Assay - Set 4. [Related pubchem assays (depositor defined):AID2013, AID2026]; format: functional;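 note: antagonism of response to 5 µM lysophosphatidylinositol agonist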
G-protein coupled receptor 55, sequence (Q9Y2T6 whole entry, the tested form may be a part): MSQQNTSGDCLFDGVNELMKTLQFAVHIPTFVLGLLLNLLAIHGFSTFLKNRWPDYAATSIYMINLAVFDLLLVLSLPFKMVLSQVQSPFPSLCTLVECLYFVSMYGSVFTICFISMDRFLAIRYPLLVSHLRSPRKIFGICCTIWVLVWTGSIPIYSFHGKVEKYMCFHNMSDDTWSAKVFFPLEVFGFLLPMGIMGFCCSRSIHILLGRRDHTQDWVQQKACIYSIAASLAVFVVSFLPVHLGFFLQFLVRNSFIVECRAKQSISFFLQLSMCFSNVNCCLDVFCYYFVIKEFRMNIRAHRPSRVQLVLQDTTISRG

[16] = molecular target: NACHT, LRR and PYD domains-containing protein 3 (Homo sapiens, UniProt Q96P20); test: NALP3 inhibitors in yeast, dose response, luminescent (AID 488799); format: functional
NACHT, LRR and PYD domains-containing protein 3, sequence (Q96P20 whole entry, the tested form may be a part): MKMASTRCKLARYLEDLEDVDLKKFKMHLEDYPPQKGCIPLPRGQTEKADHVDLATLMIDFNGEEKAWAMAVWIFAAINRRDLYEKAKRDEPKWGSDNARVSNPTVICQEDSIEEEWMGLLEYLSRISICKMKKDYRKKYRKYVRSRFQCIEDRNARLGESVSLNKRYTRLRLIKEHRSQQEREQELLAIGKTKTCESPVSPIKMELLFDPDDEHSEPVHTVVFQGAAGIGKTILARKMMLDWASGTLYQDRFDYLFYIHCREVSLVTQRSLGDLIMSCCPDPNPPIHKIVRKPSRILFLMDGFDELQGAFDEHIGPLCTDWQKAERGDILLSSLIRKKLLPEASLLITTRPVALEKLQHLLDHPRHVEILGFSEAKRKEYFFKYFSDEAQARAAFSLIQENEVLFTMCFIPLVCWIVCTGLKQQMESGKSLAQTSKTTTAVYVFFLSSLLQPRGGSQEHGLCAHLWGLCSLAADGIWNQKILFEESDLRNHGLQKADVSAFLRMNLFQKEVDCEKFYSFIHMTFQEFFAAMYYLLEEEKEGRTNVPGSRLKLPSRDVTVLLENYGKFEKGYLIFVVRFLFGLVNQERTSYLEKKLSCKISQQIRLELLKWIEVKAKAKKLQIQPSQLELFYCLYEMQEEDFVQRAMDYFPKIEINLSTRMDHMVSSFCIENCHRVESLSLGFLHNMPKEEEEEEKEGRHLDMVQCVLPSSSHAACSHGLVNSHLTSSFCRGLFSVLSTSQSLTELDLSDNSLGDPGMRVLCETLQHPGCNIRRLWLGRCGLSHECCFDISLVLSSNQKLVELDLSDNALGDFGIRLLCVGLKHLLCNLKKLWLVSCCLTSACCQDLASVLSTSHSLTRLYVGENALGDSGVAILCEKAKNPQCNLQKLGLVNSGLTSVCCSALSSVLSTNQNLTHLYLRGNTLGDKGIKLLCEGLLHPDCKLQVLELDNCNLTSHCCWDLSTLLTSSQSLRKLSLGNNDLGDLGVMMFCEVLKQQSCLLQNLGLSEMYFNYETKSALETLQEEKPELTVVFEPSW

[17] = molecular target: Eukaryotic translation initiation factor 4E (Mus musculus, UniProt P63073); test: eIF4E–eIF4G protein interaction inhibitors, dose response, biochemical, TR-FRET (AID 855); format: functional;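 note: potency for disrupting eIF4E binding to eIF4GI seen as loss of FRET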
Eukaryotic translation initiation factor 4E, sequence (P63073 whole entry): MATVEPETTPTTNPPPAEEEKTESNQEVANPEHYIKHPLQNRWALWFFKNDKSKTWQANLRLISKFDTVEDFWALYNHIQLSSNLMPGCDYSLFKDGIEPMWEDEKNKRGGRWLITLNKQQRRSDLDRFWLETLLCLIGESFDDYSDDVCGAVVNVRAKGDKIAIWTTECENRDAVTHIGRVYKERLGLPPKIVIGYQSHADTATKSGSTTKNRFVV

[18] = molecular target: Alkaline phosphatase, placental type (Homo sapiens, UniProt P05187); test: PLAP enzyme inhibitors, confirmation, biochemical, luminescence (AID 1512); format: functional
Alkaline phosphatase, placental type, sequence (P05187 whole entry): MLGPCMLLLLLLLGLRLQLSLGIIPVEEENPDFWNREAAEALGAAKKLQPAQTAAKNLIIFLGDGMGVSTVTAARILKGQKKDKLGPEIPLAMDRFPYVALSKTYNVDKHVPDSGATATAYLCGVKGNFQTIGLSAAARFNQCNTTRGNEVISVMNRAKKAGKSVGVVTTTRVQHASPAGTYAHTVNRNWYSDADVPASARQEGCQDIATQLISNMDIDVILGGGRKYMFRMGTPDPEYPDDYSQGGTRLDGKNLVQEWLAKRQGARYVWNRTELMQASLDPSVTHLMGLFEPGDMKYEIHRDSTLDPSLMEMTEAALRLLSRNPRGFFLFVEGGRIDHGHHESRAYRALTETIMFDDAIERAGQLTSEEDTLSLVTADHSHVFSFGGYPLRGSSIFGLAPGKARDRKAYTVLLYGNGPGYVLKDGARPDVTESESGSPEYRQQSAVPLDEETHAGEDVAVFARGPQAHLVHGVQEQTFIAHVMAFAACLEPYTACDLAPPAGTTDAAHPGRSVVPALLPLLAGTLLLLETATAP

[19] = molecular target: T5, Alkaline phosphatase, tissue-nonspecific isozyme (Homo sapiens, UniProt P05186); test: human TNAP enzyme inhibitors, SAR follow-up, biochemical, luminescent, dose response (AID 1056)
T5 sequence (P05186 whole entry): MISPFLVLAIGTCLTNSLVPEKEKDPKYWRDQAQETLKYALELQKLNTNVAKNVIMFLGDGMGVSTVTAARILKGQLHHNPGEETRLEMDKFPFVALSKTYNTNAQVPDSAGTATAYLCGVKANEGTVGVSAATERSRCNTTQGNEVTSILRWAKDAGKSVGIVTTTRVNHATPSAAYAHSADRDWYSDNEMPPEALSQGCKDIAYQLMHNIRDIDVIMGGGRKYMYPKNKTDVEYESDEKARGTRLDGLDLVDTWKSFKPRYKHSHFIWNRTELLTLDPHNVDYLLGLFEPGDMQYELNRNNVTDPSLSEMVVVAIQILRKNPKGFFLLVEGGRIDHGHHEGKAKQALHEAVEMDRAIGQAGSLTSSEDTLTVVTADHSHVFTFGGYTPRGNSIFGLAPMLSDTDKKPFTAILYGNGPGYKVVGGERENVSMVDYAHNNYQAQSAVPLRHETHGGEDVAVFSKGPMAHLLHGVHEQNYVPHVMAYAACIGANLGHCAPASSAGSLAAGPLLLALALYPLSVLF

[20] = molecular target: Glyceraldehyde-3-phosphate dehydrogenase (Homo sapiens, UniProt P04406)
Glyceraldehyde-3-phosphate dehydrogenase, sequence (P04406 whole entry): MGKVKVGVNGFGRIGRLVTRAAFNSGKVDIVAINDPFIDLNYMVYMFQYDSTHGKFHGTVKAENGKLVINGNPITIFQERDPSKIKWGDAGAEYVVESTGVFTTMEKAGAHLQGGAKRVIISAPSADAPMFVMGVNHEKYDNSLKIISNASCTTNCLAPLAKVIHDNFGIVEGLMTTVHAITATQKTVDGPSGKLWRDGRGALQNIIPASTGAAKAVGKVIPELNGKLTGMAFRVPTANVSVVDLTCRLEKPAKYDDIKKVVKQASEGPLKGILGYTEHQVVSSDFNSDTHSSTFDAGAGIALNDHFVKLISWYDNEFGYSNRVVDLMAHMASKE

[21] = HepG2 cell cytotoxicity, dose response, cytotoxicity control for Shn3 inhibitor project, CellTiter-Glo, cherry-picked (AID 624134); format: functional, cell-based
Streptococcus = test: Group A Streptococcus viability loss, dose response, counter-screen for streptokinase expression inhibitor project, luminescence, BacTiterGlo (AID 1915); format: functional, organism-based;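 note: potency for reduction of bacterial viability or growth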
[22] = control 3'UTR Renilla luciferase suppression, dose response, counter-screen for Shn3 inhibitor project, cell-based, Clone20-Shn3RL, cherry-picked (AID 624133); format: functional
[23] = Shn3 3'UTR reporter inhibitors, dose response, cell-based, Clone20 osteoblasts, firefly luciferase, cherry-picked (AID 624132); format: functional;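 note: firefly luciferase luminescence from reporter carrying the Shn3 3'UTR in osteoblasts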
Streptokinase A = molecular target: T6, Streptokinase A (Streptococcus pyogenes serotype M1, UniProt P10520); test: S. pyogenes streptokinase expression inhibitors, potency, dose response, plasminogen activation absorbance, OD405 (AID 1914); format: functional, Streptococcus pyogenes M1 GAS;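 note: secreted streptokinase activity via plasminogen activation per viability signal from cell pellet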
T6 sequence (P10520 whole entry): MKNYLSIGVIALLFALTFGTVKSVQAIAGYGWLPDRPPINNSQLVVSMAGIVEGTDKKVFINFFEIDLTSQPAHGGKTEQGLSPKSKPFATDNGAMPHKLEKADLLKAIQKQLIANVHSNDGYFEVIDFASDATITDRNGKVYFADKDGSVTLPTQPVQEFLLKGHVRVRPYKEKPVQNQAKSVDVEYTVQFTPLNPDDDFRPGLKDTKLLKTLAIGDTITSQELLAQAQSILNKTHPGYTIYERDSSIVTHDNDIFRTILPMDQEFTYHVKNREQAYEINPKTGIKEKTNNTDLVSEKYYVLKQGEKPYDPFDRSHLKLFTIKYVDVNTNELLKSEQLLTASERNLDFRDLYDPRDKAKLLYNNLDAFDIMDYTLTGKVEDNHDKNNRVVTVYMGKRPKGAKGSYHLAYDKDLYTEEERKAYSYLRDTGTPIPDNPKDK

[24] = test system: Streptococcus sp. 'group A'; test: growth inhibition of control SK(-) GAS strain, dose response, counter-screen for streptokinase expression inhibitor project, luminescence, kanamycin, BacTiterGlo, confirmation (AID 1900); format: functional, organism-based
[25] = THP-1 cell cytotoxicity, dose response, cytotoxicity control for Vif-APOBEC3G degradation inhibitor project, THP-1 cells (AID 1117359); format: functional; settings: Human immunodeficiency virus 1, THP-1

CAAX prenyl protease 2, sequence (Q03530 whole entry): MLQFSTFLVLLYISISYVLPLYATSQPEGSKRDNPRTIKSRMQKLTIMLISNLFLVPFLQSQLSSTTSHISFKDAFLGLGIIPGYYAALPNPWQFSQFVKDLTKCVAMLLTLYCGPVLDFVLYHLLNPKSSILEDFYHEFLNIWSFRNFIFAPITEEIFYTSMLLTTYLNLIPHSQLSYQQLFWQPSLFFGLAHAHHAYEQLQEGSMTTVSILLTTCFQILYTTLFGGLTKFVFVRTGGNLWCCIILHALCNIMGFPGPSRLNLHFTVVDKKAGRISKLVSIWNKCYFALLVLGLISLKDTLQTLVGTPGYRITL

For `O=C(O)CNc1ccccc1C(=O)O`, which AC50 (CAAX prenyl protease 2) is on record?
Its AC50 is 11.3 µM (active).

What does the source list for `Cc1cccc(OCc2n(C)c3ccccc3[n+]2CC(=O)OC2CC(C)CCC2C(C)C)c1` (configuration not stated)?
EC50 [1]: 0.565 µM (active); IC50 [2]: > 20 µM (inactive); AC50 [3]: 3.49 µM (active); EC50 [4]: 11.2 µM (inconclusive); EC50 [5]: > 60 µM (not active); CC50 [6]: 18.8 µM (active); AC50 (INS1): 3.61 µM (active); EC50 [7]: 8.85 µM (active); EC50 [8]: 0.736 µM (active)

Which results are given for `O=C(N1CCC(n2nc(-c3ccccc3)oc2=O)CC1)C1(c2ccccc2)CC1`?
EC50 (Cannabinoid receptor 1 [9]): > 32 µM (inactive); EC50 [10]: > 32 µM (inactive); IC50 [11]: > 32 µM (inactive); IC50 (Cannabinoid receptor 2 [12]): > 32 µM (inactive); IC50 (Cannabinoid receptor 1 [13]): 8.64 µM (active); EC50 (Cannabinoid receptor 2 [14]): > 32 µM (inactive); IC50 [15]: 17.4 µM (inactive)

For `CCOC(=O)c1ccc2c(c1)nc(COc1ccc(OC)cc1)n2CC`, which IC50 [16] is on record?
Its IC50 is > 100 µM (inactive).

With `Cc1ccc(NC(=O)CN2C(=O)S/C(=C/c3ccc(-c4cccc(C(=O)O)c4)o3)C2=O)cc1` as the compound, how does the IC50 [17] read?
The IC50 was 50 µM (inactive).

With `COc1cc(CCc2nc(N)nn2-c2ccccc2)cc(OC)c1OC` as the compound, how does the IC50 [18] read?
The IC50 was > 100 µM (inactive).

And the IC50 [19]?
Its IC50 is > 100 µM (inactive).

And the IC50 [20]?
Its IC50 is > 100 µM (not active).

What does the source list for `Cc1cc(C)n(-c2nc(Nc3ccccc3C(F)(F)F)nc(-n3nc(C)cc3C)n2)n1`?
AC50 [21]: 58.1 µM (active); CC50 [6]: 12.4 µM (active); EC50 (Streptococcus): 8.12 µM (active); AC50 (INS1): 4.01 µM (active); AC50 [22]: 5.19 µM (active); EC50 [7]: 26 µM (inactive); AC50 [23]: 5.49 µM (active); EC50 (Streptokinase A): > 150 µM (not active); EC50 [24]: 5.15 µM (active); CC50 [25]: 3.77 µM (active)
